Measurements as given in US7741431B2, “Liposomes containing novel targeting and/or fusogenic peptides, preparations containing them and therapeutic use thereof” (The United States of America as represented by the …, priority 2005, dated 2010).
“Also recorded” adds a separate entry of the source.

Key:
[1] = tested on: mast cells (RBL-2H3); assay type: cell-based
[2] = tested on: lung epithelial cells (A-549); assay type: cell-based, human
[3] = Liposome fusion assay (Rhodamine B R18 dequenching)
Source text: Liposomes are picked-up by cells by endocytosis and form an endosome. Within a few minutes the pH in the endosome drops to 5 and degradation begins. In order to accelerate the fusion of the liposome with the endosome membrane and release its DNA content into the cytoplasm, fusogenic peptides (Plank et al., 1994, Puyal et al., 1994), triggered by the low pH, are integrated into the liposomes membrane (0.1-2%). The most suitable fusogenic peptide and its concentration in the liposome are selected, using in-vitro fluorescence method (Hoekstra et al., 1984) at different pH levels.
Rhodamine B (R18) quenching curve: Rhodamine is characterized by self-quenching, which increases linearly with increasing concentration of R18. […] A total fusion of the two types of liposomes would result in a reduction of R18 concentration or quenching by ˜50%. Since liposomes also tend to fuse with their own type, this high level of fusion can never be achieved.
Liposomes containing 8 Mol % of R18 are mixed with liposomes conjugated to the fusion peptide at pH 7.4 and the fluorescence is measured using […] at λ=550 nm and emission at λ=580 nm. The pH is adjusted to 5.0 by adding few drops of 1N HCl and the change in fluorescence is measured. The total fluorescence is then determined by treating the mixture with Triton X-100. […]

Substance: SEQ ID NO: 1: targeting peptide whose sequence derives from endothelin-1, for lung mast cells and lung epithelial cells (CHLDIIW)
- binding / targeting to mast cells [1]: efficient targeting peptide; also recorded: high affinity
- binding / targeting to lung epithelial cells [2]: efficient targeting peptide; also recorded: high affinity

Substance: SEQ ID NO: 2: fusogenic peptide derived from the amphiphatic, pH-dependent peptide of influenza virus hemagglutinin (CGYWGDIMGEWGDEIFGEIAGFLG)
- activity as a fusogen [3]: highly active
